Values joined by “and” are separate entries in the source; they are usually repeats but may differ in a detail not shown here. Identical values can stand only once. ± gives the expanded uncertainty stated by the source.
Details: Liquid; for electrical conductivity / viscosity / self diffusion coefficient: 101.33 kPa; for electrical conductivity: Alternating current cell with electrodes; for mass density: 100 kPa, Vibrating tube method; for self diffusion coefficient: NMR spin-echo technique

CCn1cc[n+](C)c1.CS(=O)(=O)[O-] [1-ethyl-3-methylimidazolium methanesulfonate]
Details	electrical conductivity	mass density [kg/m3]	self diffusion coefficient [m2/s]
273.15 K	0.0413 ± 0.00083 S/m	–	–
278.15 K	0.0656 ± 0.0013 S/m	1256.19 ± 0.61	–
280.65 K	–	1254.4 ± 0.61	–
283.15 K	0.0988 ± 0.002 S/m	1252.62 ± 0.61	–
285.65 K	–	1250.84 ± 0.61	–
288.15 K	0.142 ± 0.0028 S/m	1249.07 ± 0.61	–
293.15 K	0.197 ± 0.004 S/m	1245.55 ± 0.61	–
294 K	–	–	7.63e-12
296.58 K	–	–	9e-12
296.62 K	–	–	9.07e-12
298.15 K	0.265 S/m and 0.259 S/m	1242.06 ± 0.61	–
298.98 K	–	–	1.02e-11
299.01 K	–	–	1.03e-11
300.65 K	0.298 ± 0.006 S/m	–	–
301.63 K	–	–	1.23e-11
301.77 K	–	–	1.24e-11
303.15 K	0.346 S/m and 0.34 S/m	1238.7 ± 0.61	–
304 K	–	–	1.35e-11
304.01 K	–	–	1.34e-11
305.65 K	0.386 ± 0.0077 S/m	–	–
306.53 K	–	–	1.52e-11
306.58 K	–	–	1.55e-11
308.15 K	0.435 ± 0.0087 S/m	–	–
310.65 K	0.488 ± 0.0098 S/m	–	–
313.15 K	0.553 ± 0.011 S/m	1231.94 ± 0.61	–
313.69 K	–	–	2.21e-11
313.74 K	–	–	2.21e-11
323.15 K	0.821 ± 0.016 S/m	1225.21 ± 0.61	–
323.7 K	–	–	3.42e-11
323.73 K	–	–	3.43e-11
333.15 K	1.15 ± 0.023 S/m	1218.52 ± 0.61	–
333.42 K	–	–	5.06e-11
333.52 K	–	–	5.07e-11
343.15 K	1.55 ± 0.031 S/m	1211.87 ± 0.61	–
343.66 K	–	–	7.13e-11
343.73 K	–	–	7.12e-11
353.15 K	1.99 ± 0.04 S/m	1205.26 ± 0.61	–
353.4 K	–	–	9.71e-11
353.61 K	–	–	9.7e-11
363.15 K	–	1198.74 ± 0.61	–

viscosity
Details	Concentric cylinders viscometry	Falling or rolling sphere viscometry
273.15 K	1250.4 ± 70 mPa·s	–
278.15 K	749.3 ± 39 mPa·s	–
283.15 K	475.8 ± 23 mPa·s	472.2 ± 38 mPa·s and 472.4 ± 38 mPa·s
285.65 K	–	379 ± 28 mPa·s
288.15 K	317.1 ± 15 mPa·s	314.8 ± 22 mPa·s and 315.7 ± 22 mPa·s
293.15 K	219.7 ± 9.7 mPa·s and 220.2 ± 9.7 mPa·s and 220 ± 9.7 mPa·s	218.9 ± 13 mPa·s and 219.3 ± 13 mPa·s
296.15 K	–	181.5 ± 10 mPa·s and 179.5 ± 10 mPa·s and 179.8 ± 10 mPa·s
298.15 K	158.2 ± 6.7 mPa·s	159.8 ± 8.6 mPa·s and 160.6 ± 8.6 mPa·s
300.15 K	–	138.8 ± 7.1 mPa·s [middle of 4 runs]
303.15 K	115.6 ± 4.8 mPa·s	116.3 ± 5.5 mPa·s
305.65 K	–	101.8 ± 4.6 mPa·s and 102 ± 4.7 mPa·s
308.15 K	–	89.34 ± 3.9 mPa·s and 89.37 ± 3.9 mPa·s
313.15 K	66.71 ± 2.7 mPa·s	69.08 ± 2.9 mPa·s and 69.13 ± 2.9 mPa·s and 69.74 ± 2.9 mPa·s
323.15 K	43.42 ± 1.7 mPa·s	44.52 ± 1.8 mPa·s and 44.54 ± 1.8 mPa·s
333.15 K	30.27 ± 1.2 mPa·s	30.49 ± 1.2 mPa·s and 30.68 ± 1.2 mPa·s
343.15 K	22.11 ± 0.89 mPa·s	21.93 ± 0.89 mPa·s and 21.98 ± 0.89 mPa·s
353.15 K	16.66 ± 0.67 mPa·s	16.42 ± 0.67 mPa·s and 16.46 ± 0.67 mPa·s
363.15 K	12.94 ± 0.52 mPa·s	12.73 ± 0.52 mPa·s and 12.81 ± 0.52 mPa·s

CCn1cc[n+](C)c1.N#C[B-](C#N)(C#N)C#N [1-ethyl-3-methylimidazolium tetracyanoborate]
Falling or rolling sphere viscometry
Details	viscosity
263.15 K	111.3 ± 5.2 mPa·s
264.05 K	108.4 ± 5 mPa·s
265.65 K	96.35 ± 4.3 mPa·s and 96.52 ± 4.3 mPa·s
268.15 K	81 ± 3.5 mPa·s [middle of 6 runs]
273.15 K	58.91 ± 2.4 mPa·s and 58.87 ± 2.4 mPa·s and 60.07 ± 2.4 mPa·s
278.15 K	44.77 ± 1.8 mPa·s
283.15 K	34.55 ± 1.4 mPa·s and 34.65 ± 1.4 mPa·s and 34.73 ± 1.4 mPa·s
288.15 K	27.4 ± 1.1 mPa·s and 27.3 ± 1.1 mPa·s and 27.14 ± 1.1 mPa·s
293.15 K	22.35 ± 0.91 mPa·s [middle of 6 runs]
296.15 K	19.62 ± 0.8 mPa·s [middle of 4 runs]
298.15 K	18.51 ± 0.75 mPa·s [middle of 4 runs]
300.15 K	17.16 ± 0.7 mPa·s and 16.93 ± 0.69 mPa·s
303.15 K	15.47 ± 0.63 mPa·s and 15.64 ± 0.64 mPa·s and 15.62 ± 0.63 mPa·s
313.15 K	11.25 ± 0.46 mPa·s [middle of 5 runs]
323.15 K	8.531 ± 0.35 mPa·s and 8.521 ± 0.35 mPa·s and 8.518 ± 0.35 mPa·s
333.15 K	6.68 ± 0.27 mPa·s
338.15 K	5.992 ± 0.24 mPa·s and 6.022 ± 0.24 mPa·s
343.15 K	5.399 ± 0.22 mPa·s and 5.4 ± 0.22 mPa·s and 5.395 ± 0.22 mPa·s
348.15 K	4.921 ± 0.2 mPa·s and 4.92 ± 0.2 mPa·s
353.15 K	4.458 ± 0.18 mPa·s and 4.455 ± 0.18 mPa·s and 4.454 ± 0.18 mPa·s

Details	mass density [kg/m3]
273.15 K	1056.29 ± 0.6
283.15 K	1048.19 ± 0.6
293.15 K	1040.2 ± 0.6
298.15 K	1036.25 ± 0.6
303.15 K	1032.31 ± 0.6
313.15 K	1024.52 ± 0.6
323.15 K	1016.81 ± 0.6
333.15 K	1009.19 ± 0.6
343.15 K	1001.66 ± 0.6
353.15 K	994.2 ± 0.6
363.15 K	986.83 ± 0.6

CCn1cc[n+](C)c1.O=S(=O)([O-])C(F)(F)F [1-ethyl-3-methylimidazolium trifluoromethanesulfonate]
Falling or rolling sphere viscometry
Details	viscosity
268.15 K	172.2 ± 9.5 mPa·s and 172.4 ± 9.5 mPa·s
273.15 K	130.7 ± 6.5 mPa·s and 130.6 ± 6.5 mPa·s
278.15 K	102.3 ± 4.7 mPa·s and 102 ± 4.7 mPa·s
283.15 K	80.26 ± 3.4 mPa·s and 80.24 ± 3.4 mPa·s
293.15 K	52.45 ± 2.1 mPa·s
298.15 K	43.54 ± 1.8 mPa·s [middle of 4 runs]
300.65 K	39.67 ± 1.6 mPa·s and 39.64 ± 1.6 mPa·s
303.15 K	36.27 ± 1.5 mPa·s
305.65 K	33.3 ± 1.4 mPa·s and 33.29 ± 1.4 mPa·s
308.15 K	30.75 ± 1.3 mPa·s and 30.7 ± 1.2 mPa·s
313.15 K	26.21 ± 1.1 mPa·s and 26.2 ± 1.1 mPa·s
323.15 K	19.57 ± 0.8 mPa·s and 19.48 ± 0.8 mPa·s
333.15 K	15.02 ± 0.61 mPa·s
343.15 K	11.78 ± 0.48 mPa·s and 11.73 ± 0.48 mPa·s
348.15 K	10.51 ± 0.43 mPa·s

Details	electrical conductivity	mass density
273.15 K	0.346 ± 0.014 S/m	1407.23 ± 0.72 kg/m3
278.15 K	0.433 ± 0.017 S/m	1402.99 ± 0.72 kg/m3
283.15 K	0.534 ± 0.021 S/m	1398.75 ± 0.72 kg/m3
288.15 K	0.647 ± 0.026 S/m	–
293.15 K	0.772 ± 0.031 S/m	1390.28 ± 0.72 kg/m3 and 1390.27 ± 0.72 kg/m3
298.15 K	0.915 S/m and 0.91 S/m	1386.04 ± 0.71 kg/m3 and 1386.06 ± 0.71 kg/m3
303.15 K	1.06 ± 0.042 S/m	1381.85 ± 0.71 kg/m3
313.15 K	1.42 ± 0.057 S/m	1373.47 ± 0.71 kg/m3 and 1373.45 ± 0.71 kg/m3
323.15 K	1.82 ± 0.073 S/m	1365.14 ± 0.71 kg/m3
333.15 K	2.25 ± 0.09 S/m	1356.86 ± 0.7 kg/m3
343.15 K	2.76 ± 0.11 S/m	1348.64 ± 0.7 kg/m3
353.15 K	3.29 ± 0.13 S/m	1340.46 ± 0.7 kg/m3
363.15 K	–	1332.32 ± 0.7 kg/m3

CC1COC(=O)O1 (centres undefined) [4-methyl-1,3-dioxolan-2-one]
Details	mass density [kg/m3]	self diffusion coefficient
251.94 K	–	1.29e-10 m2/s
251.99 K	–	1.25e-10 m2/s and 1.24e-10 m2/s
262.92 K	–	1.95e-10 m2/s and 1.9e-10 m2/s
262.93 K	–	1.96e-10 m2/s and 1.93e-10 m2/s
273.09 K	–	2.76e-10 m2/s and 2.73e-10 m2/s
273.15 K	1226.25 ± 0.61	2.73e-10 m2/s and 2.65e-10 m2/s
278.15 K	1220.9 ± 0.61	–
278.27 K	–	3.12e-10 m2/s
278.28 K	–	3.19e-10 m2/s
278.51 K	–	3.19e-10 m2/s
283.15 K	1215.55 ± 0.61	–
283.25 K	–	3.7e-10 m2/s and 3.63e-10 m2/s
283.27 K	–	3.7e-10 m2/s and 3.68e-10 m2/s
288.26 K	–	4.06e-10 m2/s and 4.1e-10 m2/s and 4.07e-10 m2/s
293.15 K	1204.89 ± 0.61	–
293.21 K	–	4.58e-10 m2/s
293.27 K	–	4.62e-10 m2/s and 4.6e-10 m2/s
298.05 K	–	5.14e-10 m2/s
298.14 K	–	5.02e-10 m2/s and 5.01e-10 m2/s
298.15 K	1199.58 ± 0.61	–
298.19 K	–	5.24e-10 m2/s and 5.21e-10 m2/s
298.21 K	–	5.23e-10 m2/s
298.26 K	–	5.24e-10 m2/s
303.15 K	1194.27 ± 0.61	–
303.18 K	–	5.99e-10 m2/s and 5.89e-10 m2/s
303.19 K	–	5.98e-10 m2/s and 5.86e-10 m2/s
308.21 K	–	6.71e-10 m2/s and 6.58e-10 m2/s
308.27 K	–	6.74e-10 m2/s and 6.54e-10 m2/s
308.78 K	–	6.55e-10 m2/s
308.86 K	–	6.59e-10 m2/s
313.15 K	1183.67 ± 0.61	–
313.39 K	–	7.44e-10 m2/s and 7.43e-10 m2/s
313.41 K	–	7.32e-10 m2/s and 7.46e-10 m2/s
318.26 K	–	8.17e-10 m2/s and 8.06e-10 m2/s
318.4 K	–	8.14e-10 m2/s and 8.18e-10 m2/s
323.15 K	1173.08 ± 0.61	–
323.2 K	–	8.97e-10 m2/s and 9.06e-10 m2/s
323.25 K	–	9.05e-10 m2/s and 8.92e-10 m2/s
323.65 K	–	8.96e-10 m2/s and 8.76e-10 m2/s
323.67 K	–	8.78e-10 m2/s and 8.71e-10 m2/s
333.08 K	–	1.05e-09 m2/s
333.13 K	–	1.04e-09 m2/s
333.15 K	1162.5 ± 0.61	–
342.8 K	–	1.22e-09 m2/s
342.86 K	–	1.18e-09 m2/s
343.15 K	1151.92 ± 0.61	–
352.52 K	–	1.4e-09 m2/s
352.61 K	–	1.42e-09 m2/s
352.68 K	–	1.35e-09 m2/s
353.15 K	1141.33 ± 0.61	–
363.15 K	1130.73 ± 0.61	–

C[N+](C)(C)CCO.O=S(=O)([N-]S(=O)(=O)C(F)(F)F)C(F)(F)F [choline bis(trifluoromethylsulfonyl)imide]
Details	mass density [kg/m3]
313.15 K	1513.41 ± 2.1
315.65 K	1511.12 ± 2.1
318.15 K	1508.82 ± 2.1
323.15 K	1504.27 ± 2
328.15 K	1499.7 ± 2
333.15 K	1495.16 ± 2
338.15 K	1490.66 ± 2
343.15 K	1486.16 ± 2
348.15 K	1481.69 ± 2
353.15 K	1477.22 ± 2
358.15 K	1472.78 ± 2
363.15 K	1468.35 ± 1.9
